In patent US20070244155A1 (AMGEN INC., priority 2006, published 2007):

molecular target: T1, human GPR40 (Homo sapiens, UniProt O14842); assay: Cell-based aequorin assay using human GPR40; details: CHO cells transfected with GPR40 and aequorin expression vectors; aequorin luminescence; activation of human GPR40; read-out: Relative EC50
T1 construct: expressed in transfected cells; host or cells: CHO cells
Procedure: A cell-based aequorin assay may be employed to characterize the modulatory activity of compounds on the GPR40 signaling pathway. In an exemplary assay, CHO cells are transfected in a 15 cm plated containing 14 million cells with 5 μg of GPR40 expression vector and 5 μg of Aequorin expression vector (Euroscreen) using Lipofectamine 2000 (Invitrogen). After 17-24 hours post-transfection, cells are washed with phosphate buffered saline (PBS) and detached from the tissue culture dish with 2 mL of trypsin (0.25%(w/v)). Trypsinization is halted with 28 mL of Hanks Buffered Salt Solution containing 20 mM Hepes (H/HBSS) and 0.01% fatty acid-free bovine serum albumin (BSA) or 0.625% fatty acid-free human serum albumin (HSA). Coelantrazine is added to 1 ug/mL and the cells are incubated for 2 hours at room temperature. Cells are gently mixed every 15 minutes. Compounds are dissolved in dimethyl sulfoxide for preparation of 10 mM stock solutions. Compounds are diluted in H/HBSS containing either 0.01% BSA or 0.625% HSA. Serial dilutions of the test compounds are prepared to determine dose response. Aequorin luminescence measurements are made using an EG&G Berthold 96-well luminometer and the response is measured over a 20 second interval after cells and compounds are mixed. The area-under-curve from 2-20 seconds is plotted to determine dose response. The EC50 (effective concentration to reach 50% maximal response) is determined from the dose response plot. Table 1 includes representative data (EC50 values) obtained for exemplary compounds of the invention for the relative activation of human GPR40. […] Therefore, in some embodiments, the invention provides any of the compounds listed in Table 1 individually or as members of a group and pharmaceutically acceptable salts, esters, solvates, tautomers, stereoisomers, and/or prodrugs thereof.

T1 sequence (O14842 whole entry): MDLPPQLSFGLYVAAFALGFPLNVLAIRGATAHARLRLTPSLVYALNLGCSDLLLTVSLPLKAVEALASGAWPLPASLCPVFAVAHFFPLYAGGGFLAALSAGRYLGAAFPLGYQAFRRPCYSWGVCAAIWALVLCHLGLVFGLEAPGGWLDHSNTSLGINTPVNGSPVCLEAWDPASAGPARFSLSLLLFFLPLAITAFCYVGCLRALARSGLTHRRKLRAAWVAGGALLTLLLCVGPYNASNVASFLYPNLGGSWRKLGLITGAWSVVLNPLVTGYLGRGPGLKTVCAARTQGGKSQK

**Q.** Cc1c(Cl)cccc1-c1cccc(COc2ccc3c(c2)C(=O)N(C)C3CC(=O)O)c1 (racemic) [Example 69, (R/S)-(5-(((3′-chloro-2′-methyl-1,1′-biphenyl-3-yl)methyl)oxy)-2-methyl-3-oxo-2,3-dihydro-1H-isoindol-1-yl)acetic acid] was tested. Which EC50 did it give?
**A.** 100 to 1000 nM

**Q.** CN1C(=O)c2cc(OCc3cccc(-c4ccc(C(F)(F)F)cc4)c3)ccc2C1CC(=O)O (racemic) [Example 70, (R/S)-(2-methyl-3-oxo-5-(((4′-(trifluoromethyl)-1,1′-biphenyl-3-yl)methyl)oxy)-2,3-dihydro-1H-isoindol-1-yl)acetic acid] was tested. Which EC50 did it give?
**A.** 1000 to 10000 nM

**Q.** O=C(O)CC1c2ccc(OCc3cccc(-c4ccc(C(F)(F)F)cc4)c3)cc2OCc2conc21 (racemic) [Example 71, (R/S)-(7-(((4′-(trifluoromethyl)-1,1′-biphenyl-3-yl)methyl)oxy)-4H,10H-[l]benzoxepino[4,3-c]isoxazol-10-yl)acetic acid] was tested. Which EC50 did it give?
**A.** 1000 to 10000 nM

**Q.** CCOc1ccc(F)c(-c2ccc(COc3ccc4c(c3)CCC(C(=O)O)C4)cc2)c1 (racemic) [Example 72, (R/S)-6-(((5′-(ethoxy)-2′-fluoro-1,1′-biphenyl-4-yl)methyl)oxy)-1,2,3,4-tetrahydro-2-naphthalenecarboxylic acid] was tested. Which EC50 did it give?
**A.** 1000 to 10000 nM

**Q.** How did the EC50 turn out when CCOc1ccc(F)c(-c2ccc(COc3ccc4c(c3)CCCC4CC(=O)O)cc2)c1 (stereo in doubt) [Example 60, (S)-[6-(5′-Ethoxy-2′-fluoro-biphenyl-4-ylmethoxy)-1,2,3,4-tetrahydro-naphthalen-1-yl]-acetic acid] was run?
**A.** 1000 to 10000 nM

**Q.** With CCOc1ccccc1-c1ccc(COc2ccc3c(c2)CCCC3CC(=O)O)cc1 (stereo not drawn) [Example 2, [6-(2′-Ethoxy-biphenyl-4-ylmethoxy)-1,2,3,4-tetrahydro-naphthalen-1-yl]-acetic acid] as the molecule, how does the EC50 read?
**A.** 100 to 1000 nM

**Q.** How did the EC50 turn out when O=C(O)C[C@@H]1CCCc2cc(OCc3cccc(-c4ccc(C(F)(F)F)cc4)c3)ccc21 [Example 3, [(S)-6(4′-Trifluoromethyl-biphenyl-3-ylmethoxy)-1,2,3,4-tetrahydro-naphthalen-1-yl]-acetic acid] was run?
**A.** 100 to 1000 nM

**Q.** Which EC50 does the source give for CCCCOc1ccc(C)cc1-c1ccc(COc2ccc3c(c2)CCC[C@H]3CC(=O)O)cc1 [Example 4] here?
**A.** < 100 nM

**Q.** Which EC50 does the source give for Cc1ccc(-c2nc(C)c(COc3ccc4c(c3)CCC[C@H]4CC(=O)O)s2)cc1 [Example 5] here?
**A.** < 100 nM

**Q.** How did the EC50 turn out when O=C(O)C[C@H]1CCCc2cc(OCc3cccc(-c4ccc(C(F)(F)F)cc4)c3)ccc21 [Example 6] was run?
**A.** 1000 to 10000 nM

**Q.** COc1cccc(-c2ccc(COc3ccc4c(c3)CCCC4CC(=O)O)cc2)c1 (stereo not drawn) [Example 7] was tested. Which EC50 did it give?
**A.** < 100 nM

**Q.** How did the EC50 turn out when O=C(O)CC1CCCc2cc(OCc3cccc(-c4ccc(C(F)(F)F)cc4)c3)ccc21 (stereo not drawn) [Example 8] was run?
**A.** 100 to 1000 nM

**Q.** With COc1ccc(COc2ccc3c(c2)CCCC3CC(=O)O)cc1 (stereo not drawn) [Example 9] as the molecule, how does the EC50 read?
**A.** 1000 to 10000 nM

**Q.** Cc1ccc(-c2nc(C)c(COc3ccc4c(c3)CCCC4CC(=O)O)s2)cc1 (stereo not drawn) [Example 10] was tested. Which EC50 did it give?
**A.** 100 to 1000 nM

**Q.** Which EC50 does the source give for CCOc1ccccc1-c1ccc(COc2ccc3c(c2)CCC3CC(=O)O)cc1 (stereo not drawn) [Example 12] here?
**A.** 100 to 1000 nM

**Q.** How did the EC50 turn out when COc1cccc(-c2ccc(COc3ccc4c(c3)CCC4CC(=O)O)cc2)c1 (stereo not drawn) [Example 13] was run?
**A.** 100 to 1000 nM

**Q.** Cc1ccc(-c2nc(C)c(COc3ccc4c(c3)CCC4CC(=O)O)s2)cc1 (stereo not drawn) [Example 14] was tested. Which EC50 did it give?
**A.** 100 to 1000 nM

**Q.** O=C(O)CC1CCc2cc(OCc3cccc(-c4ccc(C(F)(F)F)cc4)c3)ccc21 (stereo not drawn) [Example 15] was tested. Which EC50 did it give?
**A.** 1000 to 10000 nM

**Q.** CCOc1cccc(-c2ccc(COc3ccc4c(c3)C(CC(=O)O)CCC4)cc2)c1 (stereo not drawn) [Example 16] was tested. Which EC50 did it give?
**A.** 1000 to 10000 nM

**Q.** With Cc1ccc(-c2nc(C)c(COc3ccc4c(c3)C(CC(=O)O)CCC4)s2)cc1 (stereo not drawn) [Example 17] as the molecule, how does the EC50 read?
**A.** 1000 to 10000 nM

**Q.** CCCCOc1ccc(C)cc1-c1ccc(COc2ccc3c(c2)C(CC(=O)O)CCC3)cc1 (stereo not drawn) [Example 18] was tested. Which EC50 did it give?
**A.** 1000 to 10000 nM

**Q.** How did the EC50 turn out when CCOc1ccccc1-c1ccc(COc2ccc3c(c2)C(CC(=O)O)CCC3)cc1 (stereo not drawn) [Example 19] was run?
**A.** 1000 to 10000 nM

**Q.** For O=C(O)CC1CCc2ccc(OCc3cccc(-c4ccc(C(F)(F)F)cc4)c3)cc2C1 (stereo not drawn) [Example 20], which EC50 is on record?
**A.** 1000 to 10000 nM

**Q.** How did the EC50 turn out when CCCCOc1ccc(C)cc1-c1ccc(COc2ccc3c(c2)CC(CC(=O)O)CC3)cc1 (stereo not drawn) [Example 21] was run?
**A.** 1000 to 10000 nM

**Q.** For O=C(O)C1CCc2cc(OCCOc3cccc(C(F)(F)F)c3)ccc2C1 (stereo not drawn) [Example 30], which EC50 is on record?
**A.** 1000 to 10000 nM

**Q.** O=C(O)C1CCc2cc(OCc3cccc(-c4ccc(C(F)(F)F)cc4)c3)ccc2C1 (stereo not drawn) [Example 31] was tested. Which EC50 did it give?
**A.** 1000 to 10000 nM

**Q.** O=C(O)C(F)(F)C1CCCc2cc(OCc3cccc(-c4ccc(C(F)(F)F)cc4)c3)ccc21 (stereo not drawn) [Example 32, Difluoro-[6-(4′-trifluoromethyl-biphenyl-3-ylmethoxy)-1,2,3,4-tetrahydro-naphthalen-1-yl]-acetic acid] was tested. Which EC50 did it give?
**A.** 1000 to 10000 nM

**Q.** How did the EC50 turn out when Cc1ccc(-c2nc(C)c(COc3ccc4c(c3)CCCC4C(F)(F)C(=O)O)s2)cc1 (stereo not drawn) [Example 33] was run?
**A.** 1000 to 10000 nM

**Q.** For C=C1COc2cc(OCc3sc(-c4ccc(C)cc4)nc3C)ccc2C1CC(=O)O (stereo not drawn) [Example 34, 2-(7-((4-methyl-2-p-tolylthiazol-5-yl)methoxy)-3-methylene-3,4-dihydro-2H-chromen-4-yl)acetic acid], which EC50 is on record?
**A.** < 100 nM

**Q.** With C=C1COc2cc(OCc3ccc(-c4cc(C)ccc4OCCCC)cc3)ccc2[C@H]1CC(=O)O [Example 36, [(S)-7-(2′-Butoxy-5′-methyl-biphenyl-4-ylmethoxy)-3-methylene-chroman-4-yl]-acetic acid] as the molecule, how does the EC50 read?
**A.** < 100 nM

**Q.** For C=C1COc2cc(OCc3ccc(-c4cc(C)ccc4OCCCC)cc3)ccc2[C@@H]1CC(=O)O [Example 37, [(R)-7-(2′-Butoxy-5′-methyl-biphenyl-4-ylmethoxy)-3-methylene-chroman-4-yl]-acetic acid], which EC50 is on record?
**A.** 100 to 1000 nM

**Q.** For C=C1CCc2cc(OCc3cccc(-c4ccc(C(F)(F)F)cc4)c3)ccc2C1CC(=O)O (stereo not drawn) [Example 38, 2-(6-(3-(4-Trifluoromethylphenyl)benzyloxy)-2-methylene-1,2,3,4-tetrahydronaphthalen-1-yl)acetic acid], which EC50 is on record?
**A.** 100 to 1000 nM

**Q.** C/C=C1/COc2cc(OCc3ccc(-c4cc(C)ccc4OCCCC)cc3)ccc2C1CC(=O)O (stereo not drawn) [Example 41] was tested. Which EC50 did it give?
**A.** 100 to 1000 nM

**Q.** How did the EC50 turn out when O=C(O)CC1COCc2cc(OCc3cccc(-c4ccc(C(F)(F)F)cc4)c3)ccc21 (stereo not drawn) [Example 42, 2-(7-(3-(4-Trifluoromethylphenyl)benzyloxy)-3,4-dihydro-1H-isochromen-4-yl)acetic acid] was run?
**A.** 100 to 1000 nM

**Q.** For Cc1ccccc1/C=C/c1ccc2c(c1)CCCC2CC(=O)O (stereo not drawn) [Example 46, [6-((E)-2-o-Tolyl-vinyl)-1,2,3,4-tetrahydro-naphthalen-1-yl]-acetic acid], which EC50 is on record?
**A.** 1000 to 10000 nM

**Q.** With COc1ccc(/C=C/c2ccc3c(c2)CCCC3CC(=O)O)cc1 (stereo not drawn) [Example 47, {6-[(E)-2-(4-Methoxy-phenyl)-vinyl]-1,2,3,4-tetrahydro-naphthalen-1-yl}-acetic acid] as the molecule, how does the EC50 read?
**A.** 1000 to 10000 nM

**Q.** O=C(O)CC1CCCc2cc(CCc3ccc(C(F)(F)F)cc3)ccc21 (stereo not drawn) [Example 48, {6-[2-(4-Trifluoromethyl-phenyl)-ethyl]-1,2,3,4-terahydro-naphthalen-1-yl}-acetic acid] was tested. Which EC50 did it give?
**A.** 1000 to 10000 nM

**Q.** For O=C(O)CC1CCCc2cc(CCc3ccc(-c4ccccc4)cc3)ccc21 (stereo not drawn) [Example 49, [6-(2-Biphenyl-4-yl-ethyl)-1,2,3,4-tetrahydro-naphthalen-1-yl]-acetic acid], which EC50 is on record?
**A.** 1000 to 10000 nM

**Q.** How did the EC50 turn out when COc1ccc(COc2ccc3c(c2)CCC(=O)N3CCC(=O)O)cc1 [Example 50, 3-[6-(4-Methoxy-benzyloxy)-2-oxo-3,4-dihydro-2H-quinolin-1-yl]-propionic acid] was run?
**A.** 1000 to 10000 nM

**Q.** Which EC50 does the source give for O=C(O)CCn1ccc2cc(OCc3cccc(-c4ccc(C(F)(F)F)cc4)c3)ccc21 [Example 51] here?
**A.** 1000 to 10000 nM

**Q.** O=C(O)Cn1ccc2cc(OCc3cccc(-c4ccc(C(F)(F)F)cc4)c3)ccc21 [Example 52] was tested. Which EC50 did it give?
**A.** 1000 to 10000 nM

**Q.** Which EC50 does the source give for O=C(O)CCn1ccc2cc(OCc3ccccc3)ccc21 [Example 53] here?
**A.** 1000 to 10000 nM

**Q.** With O=C(O)c1cc2ccc(OCc3cccc(Oc4ccccc4)c3)cc2oc1=O [Example 54, 7-(3-Phenoxybenzyloxy)-2-oxo-2H-chromene-3-carboxylic acid] as the molecule, how does the EC50 read?
**A.** 1000 to 10000 nM

**Q.** Cc1cc(Cl)ccc1-c1cccc(COc2ccc3c(c2)CCC[C@@H]3CC(=O)O)c1 [Example 55] was tested. Which EC50 did it give?
**A.** 100 to 1000 nM

**Q.** With Cc1nc(-c2ccc(C(F)(F)F)cc2)sc1COc1ccc2c(c1)CCC[C@@H]2CC(=O)O [Example 56] as the molecule, how does the EC50 read?
**A.** 100 to 1000 nM

**Q.** With COc1cccc(-c2ccc(COc3ccc4c(c3)CCC[C@H]4CC(=O)O)cc2)c1 [Example 57, (S)-[6-(3′-Methoxy-biphenyl-4-ylmethoxy)-1,2,3,4-tetrahydro-naphthalen-1-yl]-acetic acid] as the molecule, how does the EC50 read?
**A.** 1000 to 10000 nM

**Q.** With COc1cccc(-c2ccc(COc3ccc4c(c3)CCC[C@@H]4CC(=O)O)cc2)c1 [Example 58, (R)-[6-(3′-Methoxy-biphenyl-4-ylmethoxy)-1,2,3,4-tetrahydro-naphthalen-1-yl]-acetic acid] as the molecule, how does the EC50 read?
**A.** 1000 to 10000 nM

**Q.** With CCOc1ccc(F)c(-c2ccc(COc3ccc4c(c3)CCC[C@H]4CC(=O)O)cc2)c1 [Example 59, (S)-[6-(5′-Ethoxy-2′-fluoro-biphenyl-4-ylmethoxy)-1,2,3,4-tetrahydro-naphthalen-1-yl]-acetic acid] as the molecule, how does the EC50 read?
**A.** 1000 to 10000 nM
